Measured values reported in patent US12480954B2, “Method for assisting evaluation of condition of kidneys, system for evaluating condition of kidneys, and program for evaluating condition of kidneys” (Kagami Inc., priority 2019, dated 2025).

Columns and labels:
[1] = human, in vivo
From the text: The test protocol was approved by the ethics committee of the national research and development agency: National Institutes of Biomedical Innovation, Health and Nutrition, and written informed consent was obtained from all of the test subjects.
[formula] • [UD-Ser represents urine D-serine level, PD-Ser represents blood D-serine level, UCre represents urine creatinine level and PCre represents blood creatinine level.]
A retrospective study was used for primary aldosteronism (PA), myeloma kidney […], diabetic nephropathy (DM) and IgA nephropathy (IGAN), from a cohort of kidney disease patients admitted to the Department of Nephrology, Osaka University Hospital for diagnosis and/or treatment from 2016 to 2017. Since IgA nephropathy test subjects had blood pressure above the reference range, they were given an angiotensin II receptor antagonist (ARB) as an antihypertensive drug. Separately, 15 healthy volunteers were recruited as non-kidney disease subjects by the National Institutes of Biomedical Innovation, Health and Nutrition. The test protocol was approved by the ethics committee of each facility, and written informed consent was obtained from all of the patients.
Sample preparation from human blood plasma and urine was carried out as follows: First a 20-fold volume of methanol was added to and completely mixed with the blood plasma. After centrifugation, 10 μL of supernatant obtained from the methanol homogenate was transferred to a brown tube and dried under reduced pressure. To the residue there were added 20 μL of 200 mM sodium borate buffer (pH 8.0) and 5 μL of fluorescent labeling reagent (40 mM 4-fluoro-7-nitro-2,1,3-benzooxadiazole (NBD-F) in anhydrous MeCN), and the mixture was then heated at 60° C. for 2 minutes. The reaction was suspended by addition of 75 μL of aqueous 0.1% TFA (v/v), and 2 μL of the reaction mixture was supplied to two-dimensional HPLC.
The amino acid optical isomers were quantified using the following two-dimensional HPLC system. NBD derivatives of the amino acids were separated and eluted using a reversed-phase column (KSAA RP, 1.0 mm i.d.×400 mm; Shiseido Corp.), in the mobile phase (5 to 35% MeCN, 0 to 20% THF, 0.05% TFA). The column temperature was 45° C. and the mobile phase flow rate was 25 μL/min. The separated amino acid fraction was separated off using a multi loop valve, and optically resolved in a continuous manner with a chiral column (KSAACSP-001S, 1.5 mm i.d.×250 mm; Shiseido Corp.). The mobile phase used was a MeOH/MeCN mixed solution containing citric acid (0 to 10 mM) or formic acid (0 to 4%), according to the amino acid retention. NBD-amino acids were detected by fluorescence detection at 530 nm using excitation light of 470 nm. The NBD-amino acid retention time was identified from standard amino acid optical isomers and quantified by a calibration curve.
The blood urine D-serine level and blood urine D-asparagine level and creatinine level were calculated by substitution into the following formulas.
[formula] • [where • UD-Ser represents the level of D-serine in the urine, • PD-Ser represents the level of D-serine in the blood, • UCre represents the level of creatinine in the urine, and • PCre represents the level of creatinine in the blood]
[formula] • [where • UD-Asn represents the level of D-asparagine in the urine, • PD-Asn represents the level of D-asparagine in the blood, • UCre represents the level of creatinine in the urine, and • PCre represents the level of creatinine in the blood] Evaluation and Assessment of Pathology

[2] = D-serine excretion rate monitored before and after therapeutic intervention in a systemic lupus erythematosus patient; type: in vivo, human; conditions: SLE patient
Protocol: After obtaining written informed consent from a person admitted to Osaka University Hospital with systemic lupus erythematosus, with ethical approval from the same University, their blood and urine were periodically sampled. The values rapidly worsened, with serum creatinine increasing from a level of 0.57 mg/dL 90 days before admission to 11.68 mg/dL and urine protein concentration increasing from 0.5 g/g Cre to 4.0 g/g Cre, while blood pressure was 122/65 mmHg, HR was 64 bpm, percutaneous arterial oxygen saturation was 100% (indoor air) and body temperature was 36.5° C. Mouth ulcers, alopecia and retinal hemorrhage were also noted, but no abnormal lung sounds, heart sounds or lower extremity edema was observed. Rapidly progressive glomerulonephritis was suspected in clinical testing, with blood hemoglobin of 4.6 g/dL, normal level complement of C3: 88 mg/dL and C4: 21 mg/dL, positive anti-dsDNA antibody of 13.0 IU/mL1, and P-ANCA of 182.0 U/mL, and therefore plasma exchange (PE) sessions were continued, and kidney biopsy was performed. Crescent-shaped cells were found in 79% of the glomeruli, fibrous crescent-shaped cells were found in 13%, and the glomerular capillaries were thickened with foam and spikes, although no glomerulosclerosis was observed. […] Tubular atrophy was localized and moderate. In immunofluorescent staining, the granular glomerular capillary walls were positive overall for IgG, IgA, IgM, C3, C4 and C1q. Diagnosis was latent ANCA-related crescent-shaped glomerular nephritis, with lupus nephritis class V. Treatment was by prednisolone pulse therapy (3 days, 1 g), followed by oral prednisolone (40 mg/day), intermittent pulse intravenous cyclophosphamide therapy (500 mg/m^2) and mycophenolate mofetil (MMF, 500 mg/day). Eight series of plasma exchange was also carried out. In response to this treatment, the serum creatinine level fell to 0.72 mg/dL, but the urine protein level persisted. […] The harvested blood and urine samples were prepared in the same manner as Example 1, and the D-serine was quantified while also calculating the D-serine excretion rate.

[3] = set-up: species or system human; conditions: in vivo
From the text: Blood D-serine levels and D-asparagine levels correlate more strongly with glomerular filtration rate than the conventional marker of creatinine. […] In healthy persons without presence of disease, blood D-serine level is kept to within a very narrow range of about 1 to 2% of total serine, whereas its presence in urine reaches 30 to 60%. […] Moreover, in healthy persons without presence of disease, blood D-asparagine level is kept to within a very narrow range of about 0.1 to 0.6% of total asparagine, whereas its presence in urine reaches 20 to 50%.

| logarithm of reference values of excretion rate [1] | mean logarithmic value of excretion rate [1] | reference values of excretion rate, mean with standard deviation of ±1.96 [1] | excreted [3] | reabsorbed in the renal tubules [3] | also measured | SMILES |
| --- | --- | --- | --- | --- | --- | --- |
| 3.75-4.50 | 4.12 | 42.46-89.66% | 50-80% |  | D-serine excretion rate ([2]; after 48 hours (so in the source)): 41.7%; D-serine excretion rate ([2]; after 8 days): 0; D-serine excretion rate ([2]; after 12 days): 0; D-serine excretion rate ([2]; after 16 days): 0; D-serine excretion rate ([2]; after 22 days): 0; D-serine excretion rate ([2]; after 29 days): 58.9%; D-serine excretion rate ([2]; after 34 days): 87.6%; D-serine excretion rate ([2]; immediately after start of treatment): 0 | N[C@H](CO)C(=O)O [D-serine] |
|  |  |  |  | about 99% |  | NC(=O)C[C@H](N)C(=O)O [L-asparagine] |
|  |  |  |  | about 99% |  | N[C@@H](CO)C(=O)O [L-serine] |
| 3.95-4.37 | 4.16 | 51.65-78.74% | 50-80% |  |  | NC(=O)C[C@@H](N)C(=O)O [D-asparagine] |
